From a melting point compilation (Tetko et al.; mined from patent text by program, amines drawn as free bases though some values may be those of a salt) come the findings set out here.

The structures appear in SMILES notation.

In the case of `CSCC(NCc1cc(Br)cc(Br)c1N)C(=O)O` (stereo not drawn), the melting point – broadly, the temperature of the solid-liquid transition – worked out at 240 °C.

As to `Cc1ccc(-c2c(NS(=O)(=O)c3ccc(C(C)(C)C)cc3)ncnc2OCCOc2ncc(SC(C)C)cn2)cc1`, the melting point worked out at 162 °C.

Compound `O=[N+]([O-])c1ccc2nc(-c3ccc4c(c3)OCCO4)ncc2c1` had a melting point of 263 to 265 °C.

In the case of `Cc1onc(-c2ccccc2)c1COc1ccc(-c2cc(O)c(SCCc3ccccc3)c(=O)o2)cc1`, the melting point was in the range of 126 to 128 °C.

In the case of `Cc1c(-c2ccccc2)oc2c(CN=[N+]=[N-])cccc2c1=O`, the melting point was in the range of 132 to 134 °C.

`C=Cc1c(N=C2NCCN2)cccc1OC` registered a melting point of 126 °C.

Consider `CN(c1cccc(C(F)(F)F)c1)c1nc2c(-c3cccc(C(=O)NCCO)c3)cccc2n1C`, for which the melting point fell in the range of 156 to 158 °C.

On to `CCOC(=O)[C@H](CCc1ccccc1)N[C@@H](Cc1ccccc1)C(=O)NCCc1scnc1C(=O)O`, for which the melting point lay in the range of 121 to 124 °C.

Compound `O=C1c2cc(OC(F)(F)F)ccc2S(=O)(=O)N1CCCCBr` returned a melting point of 77 to 78 °C.

Take `CCOC(=O)c1cnc2ccn(-c3ccccc3)n2c1=O`: the melting point lay in the range of 187 to 190 °C.

As to `Cc1cc(C)c2[nH]c(=O)n(CCCN3CC=C(c4ccc(Cl)cc4)CC3)c(=O)c2c1`, the melting point lay in the range of 224 to 226 °C.

Compound `Cc1ncncc1C(=O)Nc1cc(F)c(-n2nc(C(F)(F)F)cc2C2CC2)c(F)c1` registered a melting point of 147 to 150 °C.

For the compound `CS(=O)(=O)c1cccnc1Oc1ccc(Cl)c(Cl)c1`, the melting point fell in the range of 95 to 96 °C.

With `CC1=CC(N)(C(=O)NCCC(C)n2ccnc2)CC=C1` (stereo not drawn), the melting point was 128 to 130 °C.

As to `CC(=O)NCc1ccc2c(c1)ncn2-c1cccc(-c2nccs2)c1`, the melting point was found to be 156 °C.

In turn, `CCOC(=O)C1=C(N)N=C(SCC)C(C(=O)OCC)C1c1cccc([N+](=O)[O-])c1` (stereo not drawn) showed a melting point of 187 °C.

Take `O=C1c2ccccc2C(=O)c2sc(-c3ccc(CO)o3)nc21`: the melting point was > 260 °C.

The compound `CC(C)C1(C)C(=O)NC2c3ccccc3C(=O)N21` (stereo not drawn) had a melting point of 178 to 200 °C.

In turn, `CCC(CC)N1CCNc2c1cc(C)nc2Oc1c(C)cc(C)cc1C` yielded a melting point of 138 to 140 °C.

On to `CCCc1c(/C=C/c2ccc(C)cc2)nc2ccc(C(=O)O)cn2c1=O`, for which the melting point is 274 to 275 °C.

`CCOc1cc2c(Cl)c(C#N)cnc2cc1NC(C)=O` came in with a melting point of 202 to 204 °C.

On to `CC#Cc1ncccc1C(=O)c1ccccc1Cl`, for which the melting point was 45 to 49 °C.

Compound `OCc1cnoc1-c1ccc(F)cc1F` had a melting point of 60 to 61 °C.

In turn, `CCC(C)(CC)c1ccc(NC(=O)c2c(OC)cccc2OC)nn1` displayed a melting point of 145 to 147 °C.

Regarding `CCOC(=O)c1c(OC(=O)C=C(C)C)c(CC)c(C)[nH]c1=O`, the melting point was found to be 166 °C.

With `O=C(CNC(=O)c1ccc([N+](=O)[O-])c(F)c1)OCc1ccccc1`, the melting point was in the range of 118 to 120 °C.

In the case of `O=C(Nc1cccc2c1C(=O)c1c-2n[nH]c1-c1ccc(C(=O)NC2CCCNC2)s1)NN1CCOCC1` (stereo not drawn), the melting point is > 300 °C.

`COC(=O)c1c(N)cccc1S(=O)(=O)NC(C)(C)C` returned a melting point of 132 to 133 °C.

As for `COc1nc2ccccc2nc1N(C)C(=O)N1CCN(c2cc(C)cc(C)c2)CC1`, the melting point was 142 to 144 °C.

`COc1ccc(CSCC(=O)NO)cc1OC`: the melting point was determined as 78 °C.

For `Cc1cc2c(cc1C#Cc1ccccc1)NC(=O)CC(c1cccc(-c3nccn3C)c1)=N2`, the melting point lay within 202 to 205 °C.

On to `CCOCc1nc2c(N)nc3cccnc3c2n1CC(C)(C)NC(=O)C(C)C`, for which the melting point is 154 to 156 °C.

`C=COc1ccccc1S(=O)(=O)NC(=O)c1ccc(Cc2cn(C)c3ccc(NC(=O)OC4CCCC4)cc23)c(OC)c1` returned a melting point of 185 to 188 °C.

With `CSc1nc(C)n(-c2ccc(N)cc2)n1`, the melting point lay in the range of 130 to 136 °C.

Compound `Nc1cc(C2=NOC(c3cc(Cl)cc(Cl)c3)(C(F)(F)F)C2)ccc1C(=O)NCC(F)(F)F` (stereo not drawn) gave a melting point of 78 to 79 °C.

Compound `CC(=O)C1=C(CS(=O)c2ccccc2)CC2C3CCC4=CC(=O)CCC4(C)C3=CCC12C` (stereo not drawn) yielded a melting point of 160 to 163 °C.

`COC(=O)c1cccn2ccnc12` registered a melting point of 67 to 69 °C.

In turn, `CCCN(C(=O)OCC(C)C)C1Cc2ccc(C3=NNC(=O)CC3)cc2C1` (stereo not drawn) registered a melting point of 161 to 162 °C.

In turn, `CC(=O)OC1CSC(Oc2ccc(Cl)c(-c3cccnc3)c2)C(OC(C)=O)C1OC(C)=O` (stereo not drawn) returned a melting point of 133 °C.

For `C=CCN1Cc2cncn2C(c2ccc(C#N)cc2)C1=O` (stereo not drawn), the melting point is 107 to 109 °C.

In turn, `CCCn1nc(C(F)F)nc1Cc1ccc(-c2ccccc2-c2nnn[nH]2)nc1` gave a melting point of 176 to 178 °C.

`O=c1[nH]c2ccc(O)cc2[nH]1` had a melting point of 186 to 187 °C.

In turn, `CC(O)=C(C#N)C(=O)Nc1ccc(F)cc1` showed a melting point of 165 to 166 °C.

`CCCN(CCC)C(Cc1cccc(OC)c1N(C(C)=O)C(C)=O)(C(=O)OCC)C(=O)OCC` returned a melting point of 72 to 75 °C.

`O=C1Nc2ccccc2C12COc1ccc(F)cc12` (stereo not drawn) gave a melting point of 224 to 226 °C.

In turn, `COc1ccc(C(=O)Nc2ccc3ccc(S(=O)CCN(C)C)nc3n2)cc1` (stereo not drawn) registered a melting point of 158 °C.

Compound `Cn1ncc(C=O)c1-c1ccc([N+](=O)[O-])o1` showed a melting point of 130 °C.

In turn, `COC1(c2ccc(C#Cc3cc(F)cc(F)c3NC(=O)C(C)(C)C)cc2)CCOCC1` returned a melting point of 77 to 79 °C.

`COc1cc(OC)c(F)c(N2Cc3cnc(NC[C@H](O)[C@@H](O)CO)nc3N(C3CCCC3)C2=O)c1` showed a melting point of 86 to 88 °C.

`O=C(Nc1ccc(-c2ccc3c(NC(=O)c4ccccc4)n[nH]c3c2F)cc1)Nc1cc(C(F)(F)F)ccc1F` had a melting point of 206 to 207 °C.

As for `CC(C)[C@H](NC(=O)N(C)Cc1csc(NC(=O)OC(C)(C)C)n1)C(=O)N[C@@H](Cc1ccccc1)[C@@H](O)C[C@H](Cc1ccccc1)NC(=O)OCc1cccnc1`, the melting point is 95 to 98 °C.

`CC(Oc1ccc(Oc2ncc(Cl)cc2Cl)cc1)C(=O)N1CCCO1` (stereo not drawn): the melting point lay in the range of 106 to 108 °C.

Regarding `CC(=O)n1cc(-c2ccccc2)c(-n2cnnc2)n1`, the melting point is 165 to 168 °C.

`COCc1ccc(C2(O)CCN(CC(O)c3cc(C)c(O)cc3C)CC2)cc1` (stereo not drawn) had a melting point of 166 °C.

As for `CN1C(=O)N(c2cc(Cl)nc(Cl)c2)C(=O)/C1=C\c1ccc(C#N)cc1`, the melting point came to 230 °C.

The compound `CC(C)(C)c1cc(C(C)(C)C)[nH]n1` returned a melting point of 191 to 193 °C.

Take `COc1ccc(Oc2c(N)cc(C(=O)O)cc2S)cc1`: the melting point is 182 to 184 °C.

Turning to `Cn1c2ccc([N+](=O)[O-])cc2c2c3c(ccc21)C(=O)OC3=O`, the melting point is > 300 °C.

Regarding `CNC(=O)c1cncc(NC(=O)N2CCC3(CCc4ccc(F)cc4O3)CC2)c1`, the melting point is 231 to 233 °C.

For the compound `C=C(CC(=O)Nc1cccc(/C=C/c2nc(C3CCCCC3)cs2)c1)C(=O)O`, the melting point lay within 187 to 189 °C.

`CON=C(c1ccccc1OCc1ccc(Cl)cc1Cl)n1ccnc1`: the melting point fell in the range of 122 to 123 °C.

The compound `CC(=O)OCC1OC(n2cc(C)c(=S)[nH]c2=S)CC1F` (stereo not drawn) returned a melting point of 113 to 114 °C.

`COC(=O)c1cccc(-c2ncc(O)cn2)c1` displayed a melting point of 219 to 223 °C.

As to `CCOCCNC(=O)COc1ccn2nc(-c3ccccc3)c(-c3ccc(=O)n(C(C)C)n3)c2c1`, the melting point fell in the range of 126 to 128 °C.

`Cc1cc(C)cc(S(=O)(=O)c2c(C(=O)O)[nH]c3ccc(Cl)cc23)c1` showed a melting point of 277 to 278 °C.

For the compound `O=C(Cc1ccc(Cl)cc1)c1cccs1`, the melting point was in the range of 98 to 99 °C.

`Clc1cc(CBr)c2noc(-c3ccccc3)c2c1` gave a melting point of 142 to 144 °C.

Compound `Cc1c(N2CC[C@H]([C@@H](C)NC(=O)OC(C)(C)C)C2)c(F)cc2c(=O)n(N)c(=O)n(C3CC3)c12` returned a melting point of 84 to 86 °C.

`CCOCc1nc2c(N)nc3cc(OCc4csc(-c5cccs5)n4)ccc3c2n1CC(C)(C)O` had a melting point of 192 to 194 °C.

`O=C(CCSC(=O)c1ccccc1)N[C@@H](Cc1ccccc1)C(=O)O` returned a melting point of 123 to 124 °C.

As for `CN1C(=O)N2CCOC2(c2ccccc2)c2cc(Cl)ccc21` (stereo not drawn), the melting point was in the range of 124 to 125 °C.

`COc1ccc(-c2nc(CO)c[nH]2)cc1` registered a melting point of 171 to 173 °C.

`Cc1cc(CO)c2c(N)c(C(N)=O)sc2n1`: the melting point was > 210 °C.

`O=C(c1ccc(F)c(F)c1)N1CCC[C@H](c2nc(-c3ccncc3)no2)C1` showed a melting point of 102 to 106 °C.

`Cc1cc(-c2cccc(C3=Nc4ccc(-c5ccccc5F)cc4NC(=O)C3)c2)on1`: the melting point fell in the range of 222 to 224 °C.

For `CC1CC(=O)NN=C1c1ccc(NC(=O)C2CC2(C)C)cc1` (stereo not drawn), the melting point is 222 to 223 °C.

Take `COc1ccc(C=Cc2cc(OC)c(OC)c(OC)c2)cc1OC`: the melting point was in the range of 150 to 152 °C.

The compound `CCOC(=O)c1cn(Cc2cccnc2)nc1OCc1ccc(OCc2nc(-c3ccco3)oc2C)c(OC)c1` registered a melting point of 131 to 132 °C.

`c1ccc2c(Sc3c4ccccc4cc4ccccc34)c3ccccc3cc2c1` yielded a melting point of 257 °C.

As to `CCCCCCCCC/C=C/C(=O)N[C@H]1CCCNC(=O)C1`, the melting point is 87 to 88 °C.

`CCOP(=O)(/C=C/C=C/c1cn(-c2ccccc2)nc1OCc1ccc(OCc2nc(-c3ccco3)oc2C)c(OC)c1)OCC` displayed a melting point of 143 to 144 °C.

In the case of `NC(=S)c1c(F)c(F)c(F)c(F)c1F`, the melting point was 92 to 93 °C.

`Cc1ccnc2c(N)cc3c(c12)OCO3` had a melting point of 118 to 120 °C.

`Nc1nc(-c2ccccc2)c(F)c(=O)[nH]1` returned a melting point of 276 to 278 °C.

Compound `CCCCCCCC(=O)Nc1ccn(C2OC(CO)C(O)C2O)c(=O)n1` (stereo not drawn) yielded a melting point of 151 to 153 °C.

`N#CN(c1ccccc1)S(=O)(=O)c1ccccc1` had a melting point of 65 to 66 °C.

The compound `Cc1c(C)c(N2CCN(c3ccnc(Cl)n3)CC2)c(C)c2c1OC(C)(C)C2` displayed a melting point of 192 to 193 °C.

`COc1cc(-c2cccs2)c(OC)c2c(OC)cc(-c3cccs3)c(OC)c12` had a melting point of 234 to 237 °C.
